Values of other authors in PMC10674484, “A Spectroscopic and Molecular Dynamics Study on the Aggregation Properties of a Lipopeptide Analogue of Liraglutide, a Therapeutic Peptide against Diabetes Type 2” (Molecules, 2023).
Read-outs that look alike come from different tables or passages of the source.

What was measured:
[1] = Excerpt: Liraglutide (LG), a lipidated glucagon-like peptide 1 derivative, more than a decade ago became a once daily leading drug in the therapy of diabetes and obesity. However, despite its prominent role in the market, LG pharmacokinetics is still under scrutiny. Former studies have shown that LG complexation with human serum albumin (HSA) is one of the factors affecting LG circulation time and catabolism. Moreover, it has been shown that the relatively large size of HSA protects LG against proteolytic degradation or rapid renal filtration, resulting in a long half-life in human ...
[2] = remark: listed apart in the source
Excerpt: (§1) From this point of view, it is interesting to compare the aggregation properties and binding affinity to serum proteins of Liraglutide, a once daily administration drug, and Semaglutide, a one weekly administration drug.

albumin = system: albumin
Excerpt: as §1

half-life ([1]; humans, subcutaneous administration) [h] | number of LP units per aggregate ([1]; pH 6.4) | number of LP units per aggregate ([1]; pH 8) | cac compared with Semaglutide [2] | Substance | affinity for albumin compared with Liraglutide (albumin)
11 to 15 | twelve | eight | lower than the latter | Liraglutide | 
 |  |  |  | Semaglutide | markedly higher
